Data taken from article PMC3199943, “Screening the MayBridge Rule of 3 Fragment Library for Compounds That Interact with the Trypanosoma brucei myo-Inositol-3-Phosphate Synthase and/or Show Trypanocidal Activity” (Molecular Biology International, 2011).
Where two headings read alike, the source gives them in different places.

Experiments:
[1] = test system: HeLa cells; assay: cells; settings: for viability at 500 µM: 65 h; for HeLa Cells Alamar Blue: Supplementary Table 1
In short: (§1)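 Alamar Blue read-out after a 5 h dye incubation that followed ~65 h compound exposure. Cells: HeLa or A549, 2 × 10^4/well, DMEM + 10% FCS + 2 mM L-Glutamine.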

[2] = biological target: T1, TbINO1 (Trypanosoma brucei brucei, UniProt Q5QQ46); assay: biochemical; assay type: binding
T1 sequence (Q5QQ46 1-528): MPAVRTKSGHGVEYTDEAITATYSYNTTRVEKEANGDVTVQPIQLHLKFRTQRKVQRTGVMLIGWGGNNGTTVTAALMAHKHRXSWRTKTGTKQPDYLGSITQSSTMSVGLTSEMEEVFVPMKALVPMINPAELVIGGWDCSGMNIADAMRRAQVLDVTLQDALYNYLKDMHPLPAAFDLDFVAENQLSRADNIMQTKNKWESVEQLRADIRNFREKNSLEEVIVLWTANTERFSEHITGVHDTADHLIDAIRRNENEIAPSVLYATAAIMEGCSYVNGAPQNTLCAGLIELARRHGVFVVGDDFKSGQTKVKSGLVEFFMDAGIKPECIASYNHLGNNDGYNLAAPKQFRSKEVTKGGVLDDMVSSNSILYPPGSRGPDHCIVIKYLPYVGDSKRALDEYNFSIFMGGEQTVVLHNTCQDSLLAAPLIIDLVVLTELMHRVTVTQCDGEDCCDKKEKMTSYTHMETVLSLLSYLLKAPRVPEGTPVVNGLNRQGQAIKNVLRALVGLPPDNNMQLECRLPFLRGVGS

[3] = test system: A549 cells; assay: Cytotoxicity against A549 cells, Alamar Blue; assay type: cell-based; settings: Supplementary Table 1, compound 0.5 mM, percentage of controls (n=1); for viability at 500 µM: Homo sapiens, A549, 65 h
In short: as §1

[4] = Homo sapiens, HeLa, read-out: HeLa Cells Alamar Blue
[5] = Homo sapiens, HeLa, read-out: HeLa Cells Alamar Blue (% survival)
[6] = read-out: Tb Ino1 Tm Shift [˚C]
[7] = compound 0.5 mM, percentage of controls, mean ± SD (n=3) or SE (n=2)
[8] = Supplementary Table 1, compound 1mM, mean ± SD from Boltzman curve fitting
[9] = Supplementary Table 1, compound 1mM, mean ± SD from Boltzman curve fitting, read-out: Tb Ino1 Tm Shift [˚C]

Row | Structure (SMILES) | viability at 500 µM [1, 4] [%] | viability at 500 µM [3] [%] | ΔTm at 1000 µM [2, 6] [°C] | other results
1 | Cc1ccc(C(N)=O)c(N)c1 [compound 190, 2-amino-4-methylbenzamide] | 46.7 ± 23.7 | 106 |  | viability at 500 µM [1, 5]: 46.7 ± 23.7%; ΔTm at 1000 µM ([2]; read-out: TbIno1 Tm shift [°C]): 1.52 ± 0.06 °C
2 | O=C(O)C1CCCCO1 (stereo not shown) [compound 93, tetrahydropyran‐2‐carboxylic acid] | 97.5 ± 2.4 | 107 | 0.55 ± 0.06 | 
3 | OCc1ccc(N2CCOCC2)s1 [compound 618, (5‐morpholinothien‐2‐yl)methanol] | 70.4 ± 13.2 | 76.3 | 1.12 ± 0.11 | 
4 | NC(=S)C1=Cc2ccccc2OC1 [compound 558, 2H‐chromene‐3‐carbothioamide] | 80.8 ± 8.8 | 98.1 | 0.05 ± 0.09 | 
5 | O=C(O)c1ccccc1-n1cccc1 [compound 513, 2-(1H-pyrrol-1-yl)benzoic acid] | 98.5 ± 6.5 | 64.4 |  | viability at 500 µM [1, 5]: 98.5 ± 6.5%; ΔTm at 1000 µM ([2]; compound 1 mM, mean ± SD (n = 3), read-out: TbIno1 Tm shift [°C]): 3.14 ± 0.09 °C
6 | Cc1nn(C)c2sc(CO)cc12 [compound 467, (1,3‐dimethyl‐1H‐thieno[2,3‐c]pyrazol‐5‐yl)methanol] |  |  |  | HeLa Cells Alamar Blue [1, 7]: 67.5 ± 16.4 percentage of controls; Tb Ino1 Tm Shift [˚C] [2, 8]: 0.35 ± 0.09 °C; A549 Cells Alamar Blue [3]: 70.7 percentage of controls
7 | Cn1nc(C(C)(C)C)cc1N [compound 216, 3‐(tert‐butyl)‐1‐methyl‐1H‐pyrazol‐5‐amine] |  |  |  | HeLa Cells Alamar Blue [1, 7]: 80.1 ± 11.3 percentage of controls; Tb Ino1 Tm Shift [˚C] [2, 8]: 0.15 ± 0.07 °C; A549 Cells Alamar Blue [3]: 56.7 percentage of controls
8 | NC(=O)c1ccccc1C(F)(F)F [compound 532, 2‐(trifluoromethyl)benzamide] | 88.3 ± 6.5 | 59.4 | 0.43 ± 0.07 | 
9 | N#CCCNCC1CCCO1 (stereo not shown) [compound 224, 3‐[(tetrahydrofuran‐2‐ylmethyl)amino]propanenitrile] |  |  |  | HeLa Cells Alamar Blue [1, 7]: 96.5 ± 13.7 percentage of controls; Tb Ino1 Tm Shift [˚C] [2, 8]: 0.21 ± 0.09 °C; A549 Cells Alamar Blue [3]: 60 percentage of controls
10 | O=C(O)C1CCNCC1 [compound 90, piperidine‐4‐carboxylic acid] | 106 ± 2 | 132 | 0.5 ± 0.06 | 
11 | Cc1cc(CO)nn1C [compound 76, (1,5‐dimethyl‐1H‐pyrazol‐3‐yl)methanol] | 99.6 ± 4.5 | 100 | 0.56 ± 0.08 | 
12 | CC(=O)NCc1cccnc1 [compound 188, N1‐(3‐pyridylmethyl)acetamide] | 104 ± 7.3 | 69.5 | 0.05 ± 0.07 | 
13 | O=C1CC(C(=O)O)c2ccccc21 (stereo not shown) [compound 409, 3‐oxoindane‐1‐carboxylic acid] | 107 ± 10.9 | 92 | 0.03 ± 0.07 | 
14 | O=C(O)c1ccc(-c2ccccn2)s1 [compound 661, 5‐(2‐pyridyl)thiophene‐2‐carboxylic acid] | 95.3 ± 3.5 | 94.1 | 0.91 ± 0.07 | 
15 | CCOC(=O)c1[nH]c(C)c(CC)c1C [compound 594, ethyl 4‐ethyl‐3,5‐dimethyl‐1H‐pyrrole‐2‐carboxylate] |  |  |  | HeLa Cells Alamar Blue [1, 7]: 79.8 ± 6.6 percentage of controls; Tb Ino1 Tm Shift [˚C] [2, 8]: 0.17 ± 0.08 °C; A549 Cells Alamar Blue [3]: 59.9 percentage of controls
16 | Cc1nc(C(N)=S)cs1 [compound 252, 2‐methyl‐1,3‐thiazole‐4‐carbothioamide] | 90.3 ± 10.7 | 102 | 0.7 ± 0.07 | 
17 | Cc1cc(N)no1 [compound 9, 5‐methylisoxazol‐3‐amine] |  | 112 | 0.13 ± 0.06 | viability at 500 µM ([1]; Homo sapiens, HeLa, read-out: HeLa Cells Alamar Blue, Supplementary Table 1, compound 0.5 mM, percentage of controls, mean ± SD (n=3) or SE (n=2)): 105 ± 6.2%

Row | Structure (SMILES) | viability at 500 µM [1, 4] [%] | viability at 500 µM [3] [%] | ΔTm at 1000 µM [2, 6] [°C] | other results
18 | COC(=O)Cc1ccsc1 [compound 238, methyl 2‐(3‐thienyl)acetate] | 111 ± 9.9 | 64.7 | 0.39 ± 0.07 | 
19 | CN(N)c1cc(C(F)(F)F)ccn1 [compound 554, 2‐(1‐methylhydrazino)‐4‐(trifluoromethyl)pyridine] |  |  |  | HeLa Cells Alamar Blue [1, 7]: 95.6 ± 16.7 percentage of controls; Tb Ino1 Tm Shift [˚C] [2, 8]: 0.15 ± 0.08 °C; A549 Cells Alamar Blue [3]: 96.1 percentage of controls
20 | N#Cc1cc(-c2ccccc2)oc1N [compound 477, 2‐amino‐5‐phenyl‐3‐furonitrile] | 98.3 ± 18.6 | 97.4 |  | ΔTm at 1000 µM [2, 9]: 0.04 ± 0.1 °C
21 | N#CCOc1ccc(C(F)(F)F)cn1 [compound 634, 2‐{[5‐(trifluoromethyl)‐2‐pyridyl]oxy}acetonitrile] |  |  |  | HeLa Cells Alamar Blue [1, 7]: 73.3 ± 1.6 percentage of controls; Tb Ino1 Tm Shift [˚C] [2, 8]: 0.24 ± 0.09 °C; A549 Cells Alamar Blue [3]: 87.2 percentage of controls
22 | Cc1noc(C)c1C#N [compound 53, 3,5‐dimethyl‐4‐isoxazolecarbonitrile] | 89.3 ± 2.8 | 84.5 | 0.52 ± 0.09 | 
23 | OCc1cccc2c1OCO2 [compound 203, 1,3‐benzodioxol‐4‐ylmethanol] | 94.6 ± 14.1 | 60.8 | 0.06 ± 0.08 | 
24 | CCc1ccc(CNC)cc1 [compound 180, N‐(4‐ethylbenzyl)‐N‐methylamine] | 99.8 ± 1.1 | 87 | 0.14 ± 0.08 | 
25 | Nc1ccc2c(c1)C(=O)OC2 [compound 175, 6‐amino‐1,3‐dihydroisobenzofuran‐1‐one] | 106 ± 17 | 79.5 | 0.04 ± 0.08 | 
26 | OCc1ccc(OC(F)(F)F)cc1 [compound 563, [4‐(trifluoromethoxy)phenyl]methanol] | 94.5 ± 8.3 | 92.9 | 0.01 ± 0.07 | 
27 | Nc1ccc2oc3c(c2c1)CCCC3 [compound 516, 6,7,8,9‐tetrahydrodibenzo[b,d]furan‐2‐amine] |  |  |  | HeLa Cells Alamar Blue [1, 7]: 108 ± 5.2 percentage of controls; Tb Ino1 Tm Shift [˚C] [2, 8]: 0.2 ± 0.07 °C; A549 Cells Alamar Blue [3]: 68.2 percentage of controls
28 | CC1Cc2ccccc2C1=O (stereo not shown) [compound 157, 2‐methylindan‐1‐one] | 94.7 ± 3.5 | 126 | 0.14 ± 0.07 | 
29 | COc1ccc(OC)c(CN)c1 [compound 329, 2,5‐dimethoxybenzylamine] | 26 ± 9 | 156 |  | ΔTm at 1000 µM [2, 9]: 0.97 ± 0.05 °C
30 | O=C(O)c1sccc1-n1cccc1 [compound 577, 3-(1H-pyrrol-1-yl)thiophene-2-carboxylic acid] | 103 ± 2.8 | 90.4 |  | viability at 500 µM [1, 5]: 103 ± 2.8%; CC50 ([1]; Homo sapiens, HeLa, read-out: HeLa ED50): > 20 mM; ΔTm at 1000 µM ([2]; read-out: TbIno1 Tm shift [°C]): 2.78 ± 0.08 °C
31 | CNc1ccc(F)cc1F [compound 144, N1‐methyl‐2,4‐difluoroaniline] | 79.3 ± 10.3 | 110 | 1.09 ± 0.06 | 
32 | O=c1c2ccccc2oc2ncccc12 [compound 600, 5H‐chromeno[2,3‐b]pyridin‐5‐one] | 78.4 ± 11 | 126 | 0.62 ± 0.05 | 
33 | OCC1CNc2ccccc2O1 (stereo not shown) [compound 307, 3,4‐dihydro‐2H‐1,4‐benzoxazin‐2‐ylmethanol] |  |  |  | HeLa Cells Alamar Blue [1, 7]: 81 ± 17.2 percentage of controls; Tb Ino1 Tm Shift [˚C] [2, 8]: 0.56 ± 0.06 °C; A549 Cells Alamar Blue [3]: 70.8 percentage of controls
34 | Cn1nc(-c2cccs2)cc1N [compound 450, 1‐methyl‐3‐(2‐thienyl)‐1H‐pyrazol‐5‐amine] |  |  |  | HeLa Cells Alamar Blue [1, 7]: 89.3 ± 5.5 percentage of controls; Tb Ino1 Tm Shift [˚C] [2, 8]: 1.1 ± 0.06 °C; A549 Cells Alamar Blue [3]: 90.7 percentage of controls
